Measured values from US20240196886A1, “ANTIBACTERIAL AND/OR ANTIVIRAL COATINGS” (CODIKOAT LTD, priority 2021, published 2024).

Experiments:
murine coronavirus (MHV) = assay: Powdered alcohol mixed directly with MHV, L929 cell infection/TCID50 assay; type: cell-based, Mouse Hepatitis Virus; settings: FIG. 6; CD encapsulated ethanol vs gamma-CD alone
Procedure: The powders obtained in Example 1 were tested for their effectiveness in inactivating the murine coronavirus in 5 minutes using L929 cells. L929 cells at 5×10^5 cells/ml concentration in 100 μl volume in a 96 wells format were used. First, the virus stock was diluted 10 times in 1×PBS. Then 20 μl MHV (multiplicity of infection [MOI] 3.0) was mixed with 10 mg and 20 mg powdered alcohol for 5 minutes at room temperature with repetitive pipetting to maximise the interaction between the virus and powdered alcohol. To mitigate the potential side effects of the powdered alcohol on L929 cells, powder treated cell culture media (cDMEM) was prepared as a control. After recovering the virus and the control media from the mixture, treated samples (triplicates) were immediately diluted in 20 μl cDMEM, thereby bringing the final MOI to 1.0. In a 96 wells format, 8 serial dilutions (DF=5.0) were prepared per sample together with non-treated virus and cell culture media (cDMEM) as positive and negative controls, respectively. Cell infection phenotype as cell death and cytopathic effect (CPE) was observed under a benchtop light microscope (20× magnification) at 24-, 48- and 72-hours post infection (hpi) intervals (FIG. 4). TCID50/ml values per experiment were calculated at 72 hpi using Reed&Muench Calculator. […]

cell lines [1] = system: cell lines
cell lines [2] = assay: Toxicity on cell lines seen in the antiviral experiments; settings: 8% PVA + glutaraldehyde coatings

## OC[C@H]1O[C@@H]2O[C@H]3[C@H](O)[C@@H](O)[C@@H](O[C@H]4[C@H](O)[C@@H](O)[C@@H](O[C@H]5[C@H](O)[C@@H](O)[C@@H](O[C@H]6[C@H](O)[C@@H](O)[C@@H](O[C@H]7[C@H](O)[C@@H](O)[C@@H](O[C@H]8[C@H](O)[C@@H](O)[C@@H](O[C@H]9[C@H](O)[C@@H](O)[C@@H](O[C@H]1[C@H](O)[C@H]2O)O[C@@H]9CO)O[C@@H]8CO)O[C@@H]7CO)O[C@@H]6CO)O[C@@H]5CO)O[C@@H]4CO)O[C@@H]3CO [CD alone, gamma-cyclodextrin]
Murine coronavirus (MHV)
  log reduction: 1 log

## OCl [HOCl, hypochlorous acid]
Cell lines [1]
  cell death and toxicity: cell death and toxicity were observed

## O=CCCCC=O [glutaraldehyde]
Cell lines [2]
  glutaraldehyde concentration above which toxicity on cell lines was observed: higher than 0.7%
